Reference: patent CN110698367A, “一种n-(1-取代萘基)-4-甲氧基苯磺酰胺类化合物及其制备和应用” (Wenzhou Medical University, priority 2019, dated 2020)

Experiments:
[1] = tested on: tumour cells [肿瘤细胞]; details: background statement, in words; cited from earlier work
[2] = tested on: STAT1 phosphorylation [STAT1的磷酸化]; details: background statement; in words; cited from earlier work
[3] = biological target: upstream kinase Src [上游激酶JAK或Src] (Homo sapiens, UniProt P12931); details: background statement; in words; cited from earlier work
Sequence of upstream kinase Src [上游激酶JAK或Src] (P12931 whole entry): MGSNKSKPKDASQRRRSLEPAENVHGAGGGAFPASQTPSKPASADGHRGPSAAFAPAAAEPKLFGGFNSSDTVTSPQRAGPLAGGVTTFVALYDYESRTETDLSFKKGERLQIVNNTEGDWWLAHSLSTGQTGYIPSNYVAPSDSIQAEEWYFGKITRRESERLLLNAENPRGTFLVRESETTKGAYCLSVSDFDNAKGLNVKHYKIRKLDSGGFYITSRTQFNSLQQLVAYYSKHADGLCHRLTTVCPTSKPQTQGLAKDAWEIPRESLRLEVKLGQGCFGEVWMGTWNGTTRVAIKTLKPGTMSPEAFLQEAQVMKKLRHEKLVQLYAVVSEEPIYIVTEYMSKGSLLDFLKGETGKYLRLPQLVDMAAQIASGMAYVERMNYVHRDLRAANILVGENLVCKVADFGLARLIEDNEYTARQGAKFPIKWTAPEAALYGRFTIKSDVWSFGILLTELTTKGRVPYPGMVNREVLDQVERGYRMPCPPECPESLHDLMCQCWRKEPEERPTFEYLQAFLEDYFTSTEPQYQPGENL

[4] = tested on: STAT3 phosphorylation [STAT3的磷酸化]; details: background statement; in words; cited from earlier work
[5] = tested on: upstream kinase JAK [上游激酶JAK]; details: background statement; in words; cited from earlier work
[6] = tested on: breast cancer cells MDA-MB-231 [乳腺癌细胞MDA-MB-231]; test: MTT antiproliferation assay, MDA-MB-231; assay type: cell-based; details: Homo sapiens, 48 h
[7] = tested on: non-small cell lung cancer cells A549 [非小细胞肺癌细胞A549]; test: MTT antiproliferation assay, A549; assay type: cell-based; details: Homo sapiens, 48 h
[8] = tested on: colon cancer cells HCT-116 [结肠癌细胞HCT-116]; test: MTT antiproliferation assay, HCT-116; assay type: cell-based; details: Homo sapiens, 48 h

Row | IC50 [6] | IC50 [7] | IC50 [8] | SMILES | IC50 [1] | inhibition of STAT1 phosphorylation [2] | inhibition of upstream kinase Src [3] | inhibition of STAT3 phosphorylation [4] | inhibition of upstream kinase JAK [5]
1 | – | – | – | COc1ccc(S(=O)(=O)Nc2cc(-c3c(O)ccc4ccccc34)c(O)c3ccccc23)cc1 [C188-9] | 较高 | 有一定的抑制作用 | 无明显抑制作用 | 能抑制STAT3的磷酸化 | 无明显抑制作用
2 | 5.88 µM | 4.46 µM | 4.83 µM | COc1ccc(S(=O)(=O)Nc2ccc(-c3ccc(C#N)c(F)c3)c3ccccc23)cc1 [VI 10] | – | – | – | – | –
